As a reminder, the Emax is the greatest response seen or fitted, relative to the assay's reference.

This experiment relates to IL-6 production induced by lipopolysaccharide (LPS) in human corneal epithelial cells. The experiment can be described thus: Evaluation test for GR agonist activity: inhibition of LPS-induced IL-6 production in human corneal epithelial cells (HCE-T). It is filed as cell-based. The conditions noted are these: Corneal epithelial cell, 10 μL of 100 μM test compound solution per well, 4 hours incubation, efficacy relative to DEX. The method, then:
In order to evaluate a GR agonist activity of the present compound, the inhibitory effects on the IL-6 production induced by lipopolysaccharide (LPS) in human corneal epithelial cells. IL-6 levels in the conditioned medium were measured using the HTRF human IL-6 Kit (boehringer-Ingelheim, Cat No. 62IL6PEB), and the procedure was carried out according to the protocol attached to the kit. Hereinafter, the specific method will be described.
LPS solution: After LPS was dissolved in phosphate buffer solution (hereinafter referred to as PBS(−)), the resulting solution was diluted with 10% FBS-DMEM/F12 medium, whereby a 1 μg/mL LPS solution was prepared.
After a test compound was dissolved in dimethylsulfoxide (hereinafter referred to as DMSO), the resulting solution was diluted with 10% FBS-DMEM/F12 medium, whereby a 100 μM test compound solution was prepared. A 100 μM DEX solution was prepared by the same method, and the inhibitory ratio of IL-6 production of DEX was evaluated to use for calculating efficacy (% DEX).
Used cell: SV40-immortalized human corneal epithelial cells (HCE-T) (RIKEN)
1) HCE-T cells were harvested, and seeded at 2.0×10^4 cells/0.1 mL/well in a 96-well plate.
2) After incubation overnight, the medium was removed and a 80 μL of new 10% FBS-DMEM/Ham's F12 medium was added into each well.
3) A 10 μL of test compounds solution was added into each well.
4) A 10 μL of LPS solution was added into each well.
5) As a negative control, a 10 μL of 10% FBS-DMEM/Ham's F12 medium was added into each well instead of a test compound solution and a LPS solution.
6) As a positive control, a 10 μL of 10% FBS-DMEM/Ham's F12 medium containing 1% DMSO was added into each well instead of a test compound solution.
7) After 4 hours incubation, supernatants were collected and IL-6 levels in the supernatants were quantitated using the HTRF human IL-6 Kit.
8) The inhibition ratio of IL-6 production (%) was calculated according to the following equation.
The inhibition ratio of IL-6 production (%) was calculated according to the following equation. The inhibition ratio of IL-6 production(%)=100×[1−(IL-6 level in each group−mean value of IL-6 level in negative control)/(mean value of IL-6 level in positive control−mean value of IL-6 level in negative control)](%)
Furthermore, the inhibition ratio of IL-6 production (efficacy (% DEX)) was also calculated according to the following equation. Efficacy(% DEX)=100×{(mean value of IL-6 inhibition in compound-treated group)/(mean value of IL-6 inhibition in DEX-treated group)}(%) (Result and Discussion)

The structures appear in SMILES notation.

Compound `COc1cc(OS(=O)(=O)C2CC2)ccc1-c1ccc2c(c1COC(=O)c1ccc(C)s1)C(C)=CC(C)(C)N2` [Compound 4-34, 6-(4-Cyclopropylsulfonyloxy-2-methoxyphenyl)-5-(5-methylthiophen-2-ylcarbonyloxymethyl)-2,2,4-trimethyl-1,2-dihydroquinoline] returned an Emax of 86%.
Next, `COc1ccccc1NCc1c(-c2ccc(OC(=O)c3ccc(F)cc3)cc2OC)ccc2c1C(C)=CC(C)(C)N2` [Compound 1-110, 6-[4-(4-Fluorobenzoyloxy)-2-methoxyphenyl]-5-(2-methoxyphenylaminomethyl)-2,2,4-trimethyl-1,2-dihydroquinoline]: 83%; `COc1cc(OS(=O)(=O)C2CC2)ccc1-c1ccc2c(c1COc1cc(F)ccc1C)C(C)=CC(C)(C)N2` [Compound 4-14, 6-(4-Cyclopropylsulfonyloxy-2-methoxyphenyl)-5-(5-fluoro-2-methylphenoxymethyl)-2,2,4-trimethyl-1,2-dihydroquinoline]: 80%.
Next, `CCCS(=O)(=O)Oc1ccc(-c2ccc3c(c2CNc2cc(F)ccc2C)C(C)=CC(C)(C)N3)c(OC)c1` [Compound 4-21, 5-(5-Fluoro-2-methylphenylaminomethyl)-6-(2-methoxy-4-propylsulfonyloxyphenyl)-2,2,4-trimethyl-1,2-dihydroquinoline]: 82%; `COc1cc(OS(=O)(=O)CCC(F)(F)F)ccc1-c1ccc2c(c1COC(=O)c1ccc(C)s1)C(C)=CC(C)(C)N2` [Compound 4-26, 6-[2-Methoxy-4-(3,3,3-trifluoropropylsulfonyl-oxy)phenyl]-5-(5-methylthiophen-2-yl-carbonyloxymethyl)-2,2,4-trimethyl-1,2-dihydroquinoline]: 77%.
`COc1cc(OC(=O)c2ccccc2C)ccc1-c1ccc2c(c1COC(=O)c1ccc(C)s1)C(C)=CC(C)(C)N2` [Compound 1-143, 6-[2-Methoxy-4-(2-methylbenzoyloxy)phenyl]-5-(5-methylthiophen-2-ylcarbonyloxymethyl)-2,2,4-trimethyl-1,2-dihydroquinoline] registered an Emax of 96%.
Regarding `COc1cc(OC(=O)c2ccccc2SC)ccc1-c1ccc2c(c1COc1cc(F)ccc1C)C(C)=CC(C)(C)N2` [Compound 1-38], the Emax stood at 75%.
Take `COc1ccccc1NCc1c(-c2ccc(OC(=O)c3cccs3)cc2OC)ccc2c1C(C)=CC(C)(C)N2` [Compound 1-104, 5-(2-Methoxyphenylaminomethyl)-6-[2-methoxy-4-(thiophen-2-ylcarbonyloxy)phenyl]-2,2,4-trimethyl-1,2-dihydroquinoline]: the Emax was 84%.
The compound `COc1cc(OC(=O)c2ccco2)ccc1-c1ccc2c(c1COC(=O)c1ccc(Br)s1)C(C)=CC(C)(C)N2` [Compound 1-162, 5-(5-Bromothiophen-2-ylcarbonyloxymethyl)-6-[4-(furan-2-ylcarbonyloxy)-2-methoxyphenyl]-2,2,4-trimethyl-1,2-dihydroquinoline] returned an Emax of 81%.
Regarding `CCCS(=O)(=O)Oc1ccc(-c2ccc3c(c2COc2cc(F)ccc2C)C(C)=CC(C)(C)N3)c(OC)c1` [Compound 4-3, 5-(5-Fluoro-2-methylphenoxymethyl)-6-(2-methoxy-4-propylsulfonyloxyphenyl)-2,2,4-trimethyl-1,2-dihydroquinoline], the maximal response (Emax) was 81%.
Next, `COc1cc(OC(=O)c2cccnc2OC)ccc1-c1ccc2c(c1CNc1cc(F)ccc1C)C(C)=CC(C)(C)N2` [Compound 1-125, 5-(5-Fluoro-2-methylphenylaminomethyl)-6-[2-methoxy-4-(2-methoxypyridin-3-ylcarbonyloxy)phenyl]-2,2,4-trimethyl-1,2-dihydroquinoline]: 81%.
In the case of `COc1cc(OC(=O)c2ccccc2OC(C)=O)ccc1-c1ccc2c(c1COC(=O)c1ccc(C)s1)C(C)=CC(C)(C)N2` [Compound 1-165, 6-[4-(2-Acetoxybenzoyloxy)-2-methoxyphenyl]-5-(5-methylthiophen-2-ylcarbonyloxymethyl)-2,2,4-trimethyl-1,2-dihydroquinoline], the Emax worked out at 93%.
On to `COc1ccc([N+](=O)[O-])cc1OCc1c(-c2ccc(OC(=O)c3ccsc3)cc2OC)ccc2c1C(C)=CC(C)(C)N2` [Compound 1-81, 5-(2-Methoxy-5-nitrophenoxymethyl)-6-[2-methoxy-4-(thiophen-3-ylcarbonyloxy)phenyl]-2,2,4-trimethyl-1,2-dihydroquinoline], for which the Emax is 76%.
The compound `COc1ccccc1NCc1c(-c2ccc(OS(C)(=O)=O)cc2OC)ccc2c1C(C)=CC(C)(C)N2` [Compound 4-20, 6-(2-Methoxy-4-methylsulfonyloxyphenyl)-5-(2-methoxyphenylaminomethyl)-2,2,4-trimethyl-1,2-dihydroquinoline] came in with an Emax of 75%.
Next, `COc1cc(OC(=O)c2ccccc2F)ccc1-c1ccc2c(c1COc1cc(F)ccc1C)C(C)=CC(C)(C)N2` [Compound 1-45, 6-[4-(2-Fluorobenzoyloxy)-2-methoxyphenyl]-5-(5-fluoro-2-methylphenoxymethyl)-2,2,4-trimethyl-1,2-dihydroquinoline]: 77%; `COc1ccccc1NCc1c(-c2ccc(OC(=O)c3ccco3)cc2OC)ccc2c1C(C)=CC(C)(C)N2` [Compound 1-3, 6-[4-(Furan-2-ylcarbonyloxy)-2-methoxyphenyl]-5-(2-methoxyphenylaminomethyl)-2,2,4-trimethyl-1,2-dihydroquinoline]: 76%; `COc1cc(OC(=O)c2cscn2)ccc1-c1ccc2c(c1COC(=O)c1ccc(C)s1)C(C)=CC(C)(C)N2` [Compound 1-155, 6-[2-Methoxy-4-(thiazol-4-ylcarbonyloxy)phenyl]-5-(5-methylthiophen-2-ylcarbonyloxymethyl)-2,2,4-trimethyl-1,2-dihydroquinoline]: 83%.
`COc1ccc(C(=O)OCc2c(-c3ccc(OC(=O)c4cccnc4)cc3OC)ccc3c2C(C)=CC(C)(C)N3)cc1` [Compound 1-157, 5-(4-Methoxybenzoyloxymethyl)-6-[2-methoxy-4-(pyridin-3-ylcarbonyloxy)phenyl]-2,2,4-trimethyl-1,2-dihydroquinoline] yielded an Emax of 76%.
Next, `COc1ccccc1C(=O)Oc1ccc(-c2ccc3c(c2COc2cc(F)ccc2C)C(C)=CC(C)(C)N3)c(OC)c1` [Compound 1-6, 5-(5-Fluoro-2-methylphenoxymethyl)-6-[2-methoxy-4-(2-methoxybenzoyloxy)phenyl]-2,2,4-trimethyl-1,2-dihydroquinoline]: 93%; `COc1cc(OS(=O)(=O)C2CCCC2)ccc1-c1ccc2c(c1COC(=O)c1ccc(C)s1)C(C)=CC(C)(C)N2` [Compound 4-30, 6-(4-Cyclopentylsulfonyloxy-2-methoxyphenyl)-5-(5-methylthiophen-2-ylcarbonyloxymethyl)-2,2,4-trimethyl-1,2-dihydroquinoline]: 93%; `COc1cc(OC(=O)c2ccsc2)ccc1-c1ccc2c(c1COC(=O)c1ccc(C)s1)C(C)=CC(C)(C)N2` [Compound 1-147, 6-[2-Methoxy-4-(thiophen-3-ylcarbonyloxy)phenyl]-5-(5-methylthiophen-2-ylcarbonyloxymethyl)-2,2,4-trimethyl-1,2-dihydroquinoline]: 80%.
Next, `CCCCS(=O)(=O)Oc1ccc(-c2ccc3c(c2COc2cc(F)ccc2C)C(C)=CC(C)(C)N3)c(OC)c1` [Compound 4-6, 6-(4-Butylsulfonyloxy-2-methoxyphenyl)-5-(5-fluoro-2-methylphenoxymethyl)-2,2,4-trimethyl-1,2-dihydroquinoline]: 82%; `COc1cc(OC(=O)N(C)C)ccc1-c1ccc2c(c1COC(=O)c1ccc(C)s1)C(C)=CC(C)(C)N2` [Compound 6-37, 6-(4-Dimethylaminocarbonyloxy-2-methoxyphenyl)-5-(5-methylthiophen-2-ylcarbonyloxymethyl)-2,2,4-trimethyl-1,2-dihydroquinoline]: 85%; `COc1cc(OC(=O)N(C)C)ccc1-c1ccc2c(c1COc1cc([N+](=O)[O-])ccc1C)C(C)=CC(C)(C)N2` [Compound 6-33, 6-(4-Dimethylaminocarbonyloxy-2-methoxyphenyl)-5-(2-methyl-5-nitrophenoxymethyl)-2,2,4-trimethyl-1,2-dihydroquinoline]: 78%.
